Reference: PubChem BioAssay AID1549 (Sanford-Burnham Center for Chemical Genomics, 2009)
Active and inactive are the calls of the source. No rule for the calls is given here.

Biological target: Influenza A virus M2 proton channel (A/TW/4845/1999 H1N1)
Assay: M2 proton channel binding, NMR based, influenza A virus H1N1 strain (AID 1549)
Conditions: NMR binding screen, M2 protein

SMILES | Kd
O=C1C=CC2=C3c4cc(O)c(O)cc4C[C@@]3(O)COC2=C1 | > 4 mM (inactive)
CCOCC(=O)N1CCc2ccccc21 | > 4 mM (inactive)
CC(=O)Nc1nnc(-c2ccccn2)o1 | > 4 mM (inactive)
O=C(O)CCc1c[nH]c2ccccc12 | > 4 mM (inactive)
COC(=O)c1c(OC)cc2c(c1C)Oc1c(Cl)c(O)c(Cl)c(C)c1C(=O)O2 | > 4 mM (inactive)
O=c1[nH]cc(COCc2ccccc2)c(=O)[nH]1 | > 4 mM (inactive)
Cc1nnc(NCCN2CCOCC2)[nH]c1=O | > 4 mM (inactive)
O=c1c(-c2cc(O)c(O)c(O)c2)coc2cc(O)c(O)c(O)c12 | > 4 mM (inactive)
O=C(Oc1ccc(-c2nnco2)cc1)N1CCCCC1 | > 4 mM (inactive)
O=C(Nc1ccccc1[N+](=O)[O-])c1ccc(=O)[nH]n1 | > 4 mM (inactive)
COc1ccc(C(=O)NCC(=O)O)cc1 | > 4 mM (inactive)
COc1ccc2[nH]cc(CN(C)C)c2c1 | > 4 mM (inactive)
O=C(Cc1c(F)cccc1Cl)Nc1ccon1 | > 4 mM (inactive)
c1ccc(CN2CCC3(CC2)Nc2ccccc2CO3)cc1 | > 4 mM (inactive)
CCNC(CC(=O)Nc1ccc(O)cc1)C(=O)O (stereo unspecified) | > 4 mM (inactive)
Nc1nnc(-c2ccncc2)s1 | > 4 mM (inactive)
O=C(Nc1nnc(-c2ccco2)o1)c1ccc([N+](=O)[O-])o1 | > 4 mM (inactive)
O=C(O)/C=C(\CC(=O)O)C(=O)O | > 4 mM (inactive)
Cc1csc(CCc2nc(C)cs2)n1 | > 4 mM (inactive)
O=C(O)CCC(=O)c1c[nH]c2ccccc12 | > 4 mM (inactive)
C=C[C@@](C)(O)CCC1C(=C)C[C@H](OC(C)=O)C2C(C)(C)CCCC12C (stereo partly specified) | > 4 mM (inactive)
O=C(NCc1ccccn1)c1ccc(Cl)cc1Cl | > 4 mM (inactive)
C/C(=N\NC(N)=S)C(=O)O | > 4 mM (inactive)

SMILES | Kd
CC(=O)Oc1ccc(/C=C/c2cc(OC(C)=O)cc(OC(C)=O)c2)cc1 | > 4 mM (inactive)
CS(=O)(=O)N/N=C/c1cccs1 | > 4 mM (inactive)
C/C=C(\C)c1nnc(NC(=O)c2ccco2)s1 | > 4 mM (inactive)
O=C(NC(=S)NCCO)c1ccccc1 | > 4 mM (inactive)
CCC(C)C(NC)C(=O)O (stereo unspecified) | > 4 mM (inactive)
Cc1occc1C(=O)N1CCC2(CC1)OCCO2 | > 4 mM (inactive)
O=c1ccn([C@@H]2O[C@H](COP(=O)(O)OP(=O)(O)OP(=O)(O)O)[C@@H](O)[C@H]2O)c(=O)[nH]1 | > 4 mM (inactive)
Cc1ccc(S(=O)(=O)CCc2ccccn2)cc1 | > 4 mM (inactive)
Oc1cc(O)c2c(c1)O[C@H](c1cc(O)c(O)c(O)c1)[C@H](O)C2 | > 4 mM (inactive)
O=c1ccc2cc(O)c(O)cc2o1 | > 4 mM (inactive)
COc1ccc(C(O)c2nccn2C)cc1 (stereo unspecified) | > 4 mM (inactive)
COc1cccc(/C=C/C(=O)O)c1C(C)C | > 4 mM (inactive)
COC(=O)N1CCN(c2ccc(OC)cc2)CC1 | > 4 mM (inactive)
C/C=C(/C)C(=O)O[C@H]1CC[C@@]2(C)[C@@H]3CC[C@H]4[C@]5(O)C[C@H](O)[C@@]6(O)[C@@H](CN7C[C@@H](C)CC[C@H]7[C@@]6(C)O)[C@]5(O)C[C@@]42OC13O | > 4 mM (inactive)
O=C(O)CCC(=O)Nc1nnc(C(F)(F)F)s1 | > 4 mM (inactive)
COC1=CC(=O)C(O)=C/C1=C\C=C\c1ccccc1 | > 4 mM (inactive)
O=C(O)CNC(=O)c1ccc([N+](=O)[O-])cc1 | > 4 mM (inactive)
CNC(=S)N1CCN=C1Nc1nc(C)cc(C)n1 | > 4 mM (inactive)
CC(=O)Nc1ccc(NC(=O)C2CC2)cc1 | > 4 mM (inactive)
C[N+](C)(C)CC(=O)[O-] | > 4 mM (inactive)
Cc1cccc(NC(=O)CN2C(=O)CNC2=O)c1 | > 4 mM (inactive)
CC(=O)Oc1ccc2c(c1)c(C(C)=O)c(C)n2C | > 4 mM (inactive)
NCCN=C1NS(=O)(=O)c2ccccc21 | > 4 mM (inactive)
